Experiments:
Type in all cases: in vivo
[1] = tested on: velvetleaf (Abutilon theophrasti); assay: Test G Pre-Emergence Protocol; conditions: Abutilon theophrasti, pre-emergence, 312 h, evaluated after 13 days; for pest or weed control at 15.625 g/ha: 15.625 g ai/ha; for pest or weed control at 15.625 g/ha / pest or weed control at 250 g/ha: read-out: Velvetleaf damage rating (100=total damage to plant; 0=no damage to plant); for pest or weed control at 62.5 g/ha: 62.5 g ai/ha, 100=total damage to plant, 0=no damage to plant, read-out: plant damage rating, Velvetleaf; for pest or weed control at 250 g/ha: 250 g ai/ha
How it was run: (§1)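 Pre-emergence spray, 15.625/62.5/250 g/ha, vehicle acetone:water 50:50 + 0.5% Tween 20, applied 1 d after sowing. Glasshouse 24/16° C, 14 h light, 65% RH, watered twice daily. Visual damage rating at 13 d, 0–100 scale.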

[2] = tested on: barnyardgrass (Echinochloa crus-galli); assay: Test G Pre-Emergence Protocol; conditions: Echinochloa crus-galli, pre-emergence, 312 h, evaluated after 13 days; for pest or weed control at 15.625 g/ha: 15.625 g ai/ha, read-out: Barnyard grass damage rating (100=total damage to plant; 0=no damage to plant); for pest or weed control at 62.5 g/ha: 62.5 g ai/ha, 100=total damage to plant, 0=no damage to plant, read-out: plant damage rating, Barnyardgrass; for pest or weed control at 250 g/ha: 250 g ai/ha, read-out: Barnyardgrass damage rating (100=total damage to plant; 0=no damage to plant)
How it was run: as §1

[3] = tested on: corn (Zea mays); assay: Test G Pre-Emergence Protocol; conditions: Zea mays, pre-emergence, 312 h, evaluated after 13 days; for plant injury at 15.625 g/ha: 15.625 g ai/ha; for plant injury at 15.625 g/ha / plant injury at 250 g/ha: read-out: Corn damage rating (100=total damage to plant; 0=no damage to plant); for plant injury at 62.5 g/ha: 62.5 g ai/ha, 100=total damage to plant, 0=no damage to plant, read-out: plant damage rating, Corn; for plant injury at 250 g/ha: 250 g ai/ha
How it was run: as §1

[4] = tested on: redroot pigweed (Amaranthus retroflexus); assay: Test G Pre-Emergence Protocol; conditions: Amaranthus retroflexus, pre-emergence, 312 h, evaluated after 13 days; for pest or weed control at 15.625 g/ha: 15.625 g ai/ha; for pest or weed control at 15.625 g/ha / pest or weed control at 250 g/ha: read-out: Pigweed, Redroot damage rating (100=total damage to plant; 0=no damage to plant); for pest or weed control at 62.5 g/ha: 62.5 g ai/ha, 100=total damage to plant, 0=no damage to plant, read-out: plant damage rating, Pigweed, Redroot; for pest or weed control at 250 g/ha: 250 g ai/ha
How it was run: as §1

[5] = tested on: ivy-leaved morning glory (Ipomoea hederacea); assay: Test G Pre-Emergence Protocol; conditions: Ipomoea, pre-emergence, 312 h, evaluated after 13 days; for pest or weed control at 15.625 g/ha: 15.625 g ai/ha, read-out: Morning-glory, Ivy-leaved damage rating (100=total damage to plant; 0=no damage to plant); for pest or weed control at 62.5 g/ha: 62.5 g ai/ha, 100=total damage to plant, 0=no damage to plant, read-out: plant damage rating, Morningglory, Ivy-leaved; for pest or weed control at 250 g/ha: 250 g ai/ha, read-out: Morningglory, Ivy-leaved damage rating (100=total damage to plant; 0=no damage to plant)
How it was run: as §1

[6] = tested on: giant foxtail (Setaria faberi); assay: Test G Pre-Emergence Protocol; conditions: Setaria faberi, pre-emergence, 312 h, evaluated after 13 days; for pest or weed control at 15.625 g/ha: 15.625 g ai/ha; for pest or weed control at 15.625 g/ha / pest or weed control at 250 g/ha: read-out: Foxtail, Giant damage rating (100=total damage to plant; 0=no damage to plant); for pest or weed control at 62.5 g/ha: 62.5 g ai/ha, 100=total damage to plant, 0=no damage to plant, read-out: plant damage rating, Foxtail, Giant; for pest or weed control at 250 g/ha: 250 g ai/ha
How it was run: as §1

[7] = tested on: velvetleaf (Abutilon theophrasti); assay: Test G Post-Emergence Protocol; conditions: Abutilon theophrasti, post-emergence, 312 h; for pest or weed control at 15.625 g/ha: 15.625 g ai/ha, evaluated after 13 days (100=total damage to plant; 0=no damage to plant), read-out: Velvetleaf damage rating; for pest or weed control at 62.5 g/ha: 62.5 g ai/ha, read-out: Velvetleaf damage rating (100=total damage to plant; 0=no damage to plant); for pest or weed control at 62.5 g/ha / pest or weed control at 250 g/ha: evaluated after 13 days; for pest or weed control at 250 g/ha: 250 g ai/ha, read-out: damage to plant, Velvetleaf (100=total damage to plant; 0=no damage to plant)
How it was run: (§2)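 Sow in soil; grow 8 d (24/16 °C, 14 h light, 65% humidity); spray 15.625/62.5/250 g/ha in acetone:water 50:50 + 0.5% Tween 20; grow on, water twice daily; score damage 0–100 at 13 d.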

[8] = tested on: barnyardgrass (Echinochloa crus-galli); assay: Test G Post-Emergence Protocol; conditions: Echinochloa crus-galli, post-emergence, 312 h; for pest or weed control at 15.625 g/ha: 15.625 g ai/ha, evaluated after 13 days (100=total damage to plant; 0=no damage to plant), read-out: Barnyardgrass damage rating; for pest or weed control at 62.5 g/ha: 62.5 g ai/ha, read-out: Barnyardgrass damage rating (100=total damage to plant; 0=no damage to plant); for pest or weed control at 62.5 g/ha / pest or weed control at 250 g/ha: evaluated after 13 days; for pest or weed control at 250 g/ha: 250 g ai/ha, read-out: damage to plant, Barnyardgrass (100=total damage to plant; 0=no damage to plant)
How it was run: as §2

[9] = tested on: corn (Zea mays); assay: Test G Post-Emergence Protocol; conditions: Zea mays, post-emergence, 312 h; for plant injury at 15.625 g/ha: 15.625 g ai/ha, evaluated after 13 days (100=total damage to plant; 0=no damage to plant), read-out: Corn damage rating; for plant injury at 62.5 g/ha: 62.5 g ai/ha, read-out: Corn damage rating (100=total damage to plant; 0=no damage to plant); for plant injury at 62.5 g/ha / plant injury at 250 g/ha: evaluated after 13 days; for plant injury at 250 g/ha: 250 g ai/ha, read-out: damage to plant, Corn (100=total damage to plant; 0=no damage to plant)
How it was run: as §2

[10] = tested on: redroot pigweed (Amaranthus retroflexus); assay: Test G Post-Emergence Protocol; conditions: Amaranthus retroflexus, post-emergence, 312 h; for pest or weed control at 15.625 g/ha: 15.625 g ai/ha, evaluated after 13 days (100=total damage to plant; 0=no damage to plant), read-out: Pigweed, Redroot damage rating; for pest or weed control at 62.5 g/ha: 62.5 g ai/ha, read-out: Pigweed, Redroot damage rating (100=total damage to plant; 0=no damage to plant); for pest or weed control at 62.5 g/ha / pest or weed control at 250 g/ha: evaluated after 13 days; for pest or weed control at 250 g/ha: 250 g ai/ha, read-out: damage to plant, Pigweed, Redroot (100=total damage to plant; 0=no damage to plant)
How it was run: as §2

[11] = tested on: ivy-leaved morning glory (Ipomoea hederacea); assay: Test G Post-Emergence Protocol; conditions: Ipomoea, post-emergence, 312 h; for pest or weed control at 15.625 g/ha: 15.625 g ai/ha, evaluated after 13 days (100=total damage to plant; 0=no damage to plant), read-out: Morningglory, Ivy-leaved damage rating; for pest or weed control at 62.5 g/ha: 62.5 g ai/ha, read-out: Morningglory, Ivy-leaved damage rating (100=total damage to plant; 0=no damage to plant); for pest or weed control at 62.5 g/ha / pest or weed control at 250 g/ha: evaluated after 13 days; for pest or weed control at 250 g/ha: 250 g ai/ha, read-out: damage to plant, Morningglory, Ivy-leaved (100=total damage to plant; 0=no damage to plant)
How it was run: as §2

[12] = tested on: giant foxtail (Setaria faberi); assay: Test G Post-Emergence Protocol; conditions: Setaria faberi, post-emergence, 312 h; for pest or weed control at 15.625 g/ha: 15.625 g ai/ha, evaluated after 13 days (100=total damage to plant; 0=no damage to plant), read-out: Foxtail, Giant damage rating; for pest or weed control at 62.5 g/ha: 62.5 g ai/ha, read-out: Foxtail, Giant damage rating (100=total damage to plant; 0=no damage to plant); for pest or weed control at 62.5 g/ha / pest or weed control at 250 g/ha: evaluated after 13 days; for pest or weed control at 250 g/ha: 250 g ai/ha, read-out: damage to plant, Foxtail, Giant (100=total damage to plant; 0=no damage to plant)
How it was run: as §2

CN1C[C@H](c2ccc(C(F)(F)F)cc2)[C@@H](C(=O)Nc2ccc(Cl)cc2[N+](=O)[O-])C1=O (racemic) [Compound 1432]
0%: pest or weed control at 15.625 g/ha [1] | pest or weed control at 62.5 g/ha [1] | pest or weed control at 250 g/ha [1] | pest or weed control at 15.625 g/ha [2] | pest or weed control at 62.5 g/ha [2] | pest or weed control at 250 g/ha [2] | plant injury at 15.625 g/ha [3] | plant injury at 62.5 g/ha [3] | plant injury at 250 g/ha [3] | pest or weed control at 15.625 g/ha [4] | pest or weed control at 62.5 g/ha [4] | pest or weed control at 250 g/ha [4] | pest or weed control at 15.625 g/ha [5] | pest or weed control at 62.5 g/ha [5] | pest or weed control at 250 g/ha [5] | pest or weed control at 15.625 g/ha [6] | pest or weed control at 62.5 g/ha [6] | pest or weed control at 250 g/ha [6] | pest or weed control at 15.625 g/ha [7] | pest or weed control at 62.5 g/ha [7] | pest or weed control at 250 g/ha [7] | pest or weed control at 15.625 g/ha [8] | pest or weed control at 62.5 g/ha [8] | pest or weed control at 250 g/ha [8] | plant injury at 15.625 g/ha [9] | plant injury at 62.5 g/ha [9] | plant injury at 250 g/ha [9] | pest or weed control at 15.625 g/ha [10] | pest or weed control at 62.5 g/ha [10] | pest or weed control at 250 g/ha [10] | pest or weed control at 15.625 g/ha [11] | pest or weed control at 62.5 g/ha [11] | pest or weed control at 250 g/ha [11] | pest or weed control at 15.625 g/ha [12] | pest or weed control at 62.5 g/ha [12] | pest or weed control at 250 g/ha [12]

CN1C[C@H](c2ccc(C(F)(F)F)cc2)[C@@H](C(=O)Nc2ccc(C(F)(F)F)c(F)c2F)C1=O (racemic) [Compound 1451]
0%: pest or weed control at 15.625 g/ha [1] | pest or weed control at 62.5 g/ha [1] | pest or weed control at 250 g/ha [1] | pest or weed control at 15.625 g/ha [2] | pest or weed control at 62.5 g/ha [2] | pest or weed control at 250 g/ha [2] | plant injury at 15.625 g/ha [3] | plant injury at 62.5 g/ha [3] | plant injury at 250 g/ha [3] | pest or weed control at 15.625 g/ha [4] | pest or weed control at 62.5 g/ha [4] | pest or weed control at 250 g/ha [4] | pest or weed control at 15.625 g/ha [5] | pest or weed control at 62.5 g/ha [5] | pest or weed control at 250 g/ha [5] | pest or weed control at 15.625 g/ha [6] | pest or weed control at 62.5 g/ha [6] | pest or weed control at 250 g/ha [6] | pest or weed control at 15.625 g/ha [7] | pest or weed control at 62.5 g/ha [7] | pest or weed control at 250 g/ha [7] | pest or weed control at 15.625 g/ha [8] | pest or weed control at 62.5 g/ha [8] | pest or weed control at 250 g/ha [8] | plant injury at 15.625 g/ha [9] | plant injury at 62.5 g/ha [9] | plant injury at 250 g/ha [9] | pest or weed control at 15.625 g/ha [10] | pest or weed control at 62.5 g/ha [10] | pest or weed control at 250 g/ha [10] | pest or weed control at 15.625 g/ha [11] | pest or weed control at 62.5 g/ha [11] | pest or weed control at 250 g/ha [11] | pest or weed control at 15.625 g/ha [12] | pest or weed control at 62.5 g/ha [12] | pest or weed control at 250 g/ha [12]

Source: US12077503B2, “Substituted cyclic amides and their use as herbicides” (FMC CORPORATION, priority 2015, dated 2024)
